Measured values as given in PubChem BioAssay AID2060511 (Molecular Pharmacology Branch, DTP, NCI, 2025).

System: 422866-222-R5-J1-PDC spheroids with HUVEC/MSC, viability
Experiment: Anticancer human tumor 422866-222-R5-J1-PDC patient-derived pancreatic adenocarcinoma cell line growth inhibition [GQUAD]
Conditions: for IC50: curve of first compound; for viability, T/C: stronger effect = lower value
Outline: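 Multi-cell-type spheroids of tumor cells with HUVEC and mesenchymal stem cells, treated with drug combinations. Concentrations descend in half-log steps from near clinical Cmax, or from 10 microM where Cmax is unknown; viability read-out.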

[1] = second compound 0.0316 µM, first compound 0.000999 µM
[2] = second compound 0.0316 µM, first compound 0.00316 µM
[3] = second compound 0.0316 µM, first compound 0.00999 µM
[4] = second compound 0.0316 µM, first compound 0.0316 µM
[5] = second compound 0.0316 µM, first compound 0.0999 µM
[6] = second compound 0.0316 µM, first compound 0.316 µM
[7] = second compound 0.1 µM, first compound 0.000999 µM
[8] = second compound 0.1 µM, first compound 0.00316 µM
[9] = second compound 0.1 µM, first compound 0.00999 µM
[10] = second compound 0.1 µM, first compound 0.0316 µM
[11] = second compound 0.1 µM, first compound 0.0999 µM
[12] = second compound 0.1 µM, first compound 0.316 µM
[13] = second compound 0.316 µM, first compound 0.000999 µM
[14] = second compound 0.316 µM, first compound 0.00316 µM
[15] = second compound 0.316 µM, first compound 0.00999 µM
[16] = second compound 0.316 µM, first compound 0.0316 µM
[17] = second compound 0.316 µM, first compound 0.0999 µM
[18] = second compound 0.316 µM, first compound 0.316 µM
[19] = second compound 1 µM, first compound 0.000999 µM
[20] = second compound 1 µM, first compound 0.00316 µM
[21] = second compound 1 µM, first compound 0.00999 µM
[22] = second compound 1 µM, first compound 0.0316 µM
[23] = second compound 1 µM, first compound 0.0999 µM
[24] = second compound 1 µM, first compound 0.316 µM
[25] = second compound 3.16 µM, first compound 0.000999 µM
[26] = second compound 3.16 µM, first compound 0.00316 µM
[27] = second compound 3.16 µM, first compound 0.00999 µM
[28] = second compound 3.16 µM, first compound 0.0316 µM
[29] = second compound 3.16 µM, first compound 0.0999 µM
[30] = second compound 3.16 µM, first compound 0.316 µM
[31] = second compound 10 µM, first compound 0.000999 µM
[32] = second compound 10 µM, first compound 0.00316 µM
[33] = second compound 10 µM, first compound 0.00999 µM
[34] = second compound 10 µM, first compound 0.0316 µM
[35] = second compound 10 µM, first compound 0.0999 µM
[36] = second compound 10 µM, first compound 0.316 µM
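Also: spheroids exposed to compounds for seven days before reading.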
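For viability, T/C in this document: percent viability relative to DMSO vehicle control taken as 100%.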

Cc1[nH]c2ccccc2c1CCNCc1ccc(/C=C/C(=O)NO)cc1 + Cc1[nH]c2ccc(F)cc2c1-c1nc2c3cccnc3c3ncccc3c2[nH]1
IC50 (second compound 0.0316 µM): > 316 nM
IC50 (second compound 0.1 µM): > 316 nM
IC50 (second compound 0.316 µM): > 316 nM
IC50 (second compound 1 µM): > 316 nM
IC50 (second compound 3.16 µM): > 316 nM
IC50 (second compound 10 µM): > 316 nM
viability, T/C [1]: 113%
viability, T/C [2]: 92.7%
viability, T/C [3]: 110%
viability, T/C [4]: 98.6%
viability, T/C [5]: 101%
viability, T/C [6]: 102%
viability, T/C [7]: 127%
viability, T/C [8]: 108%
viability, T/C [9]: 102%
viability, T/C [10]: 93%
viability, T/C [11]: 111%
viability, T/C [12]: 94%
viability, T/C [13]: 96.6%
viability, T/C [14]: 97.2%
viability, T/C [15]: 121%
viability, T/C [16]: 105%
viability, T/C [17]: 115%
viability, T/C [18]: 98.9%
viability, T/C [19]: 74.5%
viability, T/C [20]: 93.9%
viability, T/C [21]: 114%
viability, T/C [22]: 112%
viability, T/C [23]: 103%
viability, T/C [24]: 111%
viability, T/C [25]: 64.2%
viability, T/C [26]: 73.7%
viability, T/C [27]: 68.2%
viability, T/C [28]: 73.9%
viability, T/C [29]: 75.2%
viability, T/C [30]: 78.9%
viability, T/C [31]: 52.1%
viability, T/C [32]: 66.2%
viability, T/C [33]: 64.7%
viability, T/C [34]: 65.7%
viability, T/C [35]: 61.1%
viability, T/C [36]: 67.6%

CC[C@@]1(O)C(=O)OCc2c1cc1n(c2=O)Cc2cc3c(CN(C)C)c(O)ccc3nc2-1 + Cc1cnc(CNC(=O)c2c(=O)c3ccc(N4CCCN(C)CC4)nc3n3c2sc2ccccc23)cn1
IC50 (second compound 0.0316 µM): 191 nM
IC50 (second compound 0.1 µM): > 316 nM
IC50 (second compound 0.316 µM): > 316 nM
IC50 (second compound 1 µM): > 316 nM
IC50 (second compound 3.16 µM): > 316 nM
IC50 (second compound 10 µM): > 316 nM
viability, T/C [1]: 97.1%
viability, T/C [2]: 92.6%
viability, T/C [3]: 94%
viability, T/C [4]: 77.1%
viability, T/C [5]: 51.4%
viability, T/C [6]: 48.9%
viability, T/C [7]: 95.8%
viability, T/C [8]: 86.8%
viability, T/C [9]: 82.8%
viability, T/C [10]: 70.8%
viability, T/C [11]: 69.6%
viability, T/C [12]: 56.2%
viability, T/C [13]: 89.2%
viability, T/C [14]: 85%
viability, T/C [15]: 87.3%
viability, T/C [16]: 80.6%
viability, T/C [17]: 80.9%
viability, T/C [18]: 58.6%
viability, T/C [19]: 78.6%
viability, T/C [20]: 81.4%
viability, T/C [21]: 76.5%
viability, T/C [22]: 81.4%
viability, T/C [23]: 83.6%
viability, T/C [24]: 74.9%
viability, T/C [25]: 79.7%
viability, T/C [26]: 80.8%
viability, T/C [27]: 83.8%
viability, T/C [28]: 81.5%
viability, T/C [29]: 90.9%
viability, T/C [30]: 74.6%
viability, T/C [31]: 82.6%
viability, T/C [32]: 88.7%
viability, T/C [33]: 81.1%
viability, T/C [34]: 83.2%
viability, T/C [35]: 88.4%
viability, T/C [36]: 60.6%

CCc1c2c(nc3ccc(O)cc13)-c1cc3c(c(=O)n1C2)COC(=O)[C@]3(O)CC + Cc1cnc(CNC(=O)c2c(=O)c3ccc(N4CCCN(C)CC4)nc3n3c2sc2ccccc23)cn1
IC50 (second compound 0.0316 µM): 1.87 nM
IC50 (second compound 0.1 µM): 15.9 nM
IC50 (second compound 0.316 µM): 25.5 nM
IC50 (second compound 1 µM): 73.2 nM
IC50 (second compound 3.16 µM): 62.2 nM
IC50 (second compound 10 µM): 106 nM
viability, T/C [1]: 56.2%
viability, T/C [2]: 42.2%
viability, T/C [3]: 44.1%
viability, T/C [4]: 41.3%
viability, T/C [5]: 37.7%
viability, T/C [6]: 24.5%
viability, T/C [7]: 66.8%
viability, T/C [8]: 59.2%
viability, T/C [9]: 50.4%
viability, T/C [10]: 46.3%
viability, T/C [11]: 44.9%
viability, T/C [12]: 34.8%
viability, T/C [13]: 75.4%
viability, T/C [14]: 63.1%
viability, T/C [15]: 56.4%
viability, T/C [16]: 47.7%
viability, T/C [17]: 46.6%
viability, T/C [18]: 30.2%
viability, T/C [19]: 73.4%
viability, T/C [20]: 76%
viability, T/C [21]: 59.6%
viability, T/C [22]: 59.4%
viability, T/C [23]: 49.3%
viability, T/C [24]: 28.2%
viability, T/C [25]: 70.2%
viability, T/C [26]: 77.4%
viability, T/C [27]: 62.5%
viability, T/C [28]: 55.7%
viability, T/C [29]: 46.5%
viability, T/C [30]: 26.3%
viability, T/C [31]: 72.5%
viability, T/C [32]: 74.8%
viability, T/C [33]: 68%
viability, T/C [34]: 60.2%
viability, T/C [35]: 54.9%
viability, T/C [36]: 22.1%

O=C(c1cc(Cc2n[nH]c(=O)c3ccccc23)ccc1F)N1CCN(C(=O)C2CC2)CC1 + Cc1cnc(CNC(=O)c2c(=O)c3ccc(N4CCCN(C)CC4)nc3n3c2sc2ccccc23)cn1
IC50 (second compound 0.0316 µM): > 10000 nM
IC50 (second compound 0.1 µM): > 10000 nM
IC50 (second compound 0.316 µM): > 10000 nM
IC50 (second compound 1 µM): > 10000 nM
IC50 (second compound 3.16 µM): > 10000 nM
IC50 (second compound 10 µM): > 10000 nM
viability, T/C [4]: 108%
viability, T/C (second compound 0.0316 µM, first compound 0.1 µM): 89%
viability, T/C [6]: 84.8%
viability, T/C (second compound 0.0316 µM, first compound 1 µM): 83.4%
viability, T/C (second compound 0.0316 µM, first compound 3.16 µM): 80.5%
viability, T/C (second compound 0.0316 µM, first compound 10 µM): 65.2%
viability, T/C [10]: 91.9%
viability, T/C (second compound 0.1 µM, first compound 0.1 µM): 84.4%
viability, T/C [12]: 80.5%
viability, T/C (second compound 0.1 µM, first compound 1 µM): 83.7%
viability, T/C (second compound 0.1 µM, first compound 3.16 µM): 80.2%
viability, T/C (second compound 0.1 µM, first compound 10 µM): 77.6%
viability, T/C [16]: 74%
viability, T/C (second compound 0.316 µM, first compound 0.1 µM): 77.9%
viability, T/C [18]: 78.8%
viability, T/C (second compound 0.316 µM, first compound 1 µM): 84%
viability, T/C (second compound 0.316 µM, first compound 3.16 µM): 85.2%
viability, T/C (second compound 0.316 µM, first compound 10 µM): 77.1%
viability, T/C [22]: 76.2%
viability, T/C (second compound 1 µM, first compound 0.1 µM): 76.6%
viability, T/C [24]: 84%
viability, T/C (second compound 1 µM, first compound 1 µM): 76.5%
viability, T/C (second compound 1 µM, first compound 3.16 µM): 80.3%
viability, T/C (second compound 1 µM, first compound 10 µM): 70.4%
viability, T/C [28]: 83.3%
viability, T/C (second compound 3.16 µM, first compound 0.1 µM): 73.7%
viability, T/C [30]: 83.2%
viability, T/C (second compound 3.16 µM, first compound 1 µM): 91.2%
viability, T/C (second compound 3.16 µM, first compound 3.16 µM): 83.6%
viability, T/C (second compound 3.16 µM, first compound 10 µM): 76.5%
viability, T/C [34]: 70%
viability, T/C (second compound 10 µM, first compound 0.1 µM): 79.4%
viability, T/C [36]: 77.8%
viability, T/C (second compound 10 µM, first compound 1 µM): 72.7%
viability, T/C (second compound 10 µM, first compound 3.16 µM): 89.5%
viability, T/C (second compound 10 µM, first compound 10 µM): 69.2%
